Measured values as given in patent publication US7494987B2, “Agent for treating respiratory diseases containing 4-hydroxypiperidine derivative as active ingredient” (priority 2002, dated 2009).

Key:
[1] = test system: Citric Acid-Induced Cough Reflex in Guinea Pigs; assay: Inhibitory effect on citric acid-induced cough reflex in guinea pigs (Experimental Example 1-1, plethysmograph); format: in vivo; conditions: oral, 30 mg/kg, cough measured 1 hr after treatment
Protocol: Guinea pigs were fasted overnight. They were fixed to a plethysmograph, and then the change of inner pressure in the plethysmograph (body side) was recorded on an ink-recording paper (Nihon Kohden Corporation; WI-642G) via the differential pressure transducer (Nihon Kohden Corporation; TP-602T) and the respiration amplifier (Nihon Kohden Corporation; AR-601G). Using a nebulizer (OMRON Corporation; NE-U12), 20 W/V % citric acid solution was sprayed into the plethysmograph (head side) for 2 min (about 1 mL/min). The number of cough response for 15 min after the spray was measured.
(§1) The cough response was measured 3 hrs before and 1 hr after oral treatment. The test compound was not administered to the guinea pigs showing 5 coughs response or less before the treatment. The ratio of cough response between before and after the treatment (Post/Pre×100) was calculated, and the percent inhibition of the test compound on cough reflex induced by citric acid was determined according to the following formula: [(CRRcontrol−CRRtest)/(CRRcontrol)]×100 (%) • CRRcontrol: Ratio (%) of cough response in the control group • CRRtest: Ratio (%) of cough response in the compound-treated group

[2] = test system: Wistar Hannover female rats; assay: Toxicological study, 14-day repeated oral dose in rats; format: in vivo; conditions: 400 mg/kg/day once daily for 14 days
Protocol: The compound of Example 26 was orally given to 6-week-old Wistar Hannover female rats at 400 mg/kg/day once daily for 14 days.

male rhesus monkeys [3] = assay: Toxicological study, 14-day repeated oral dose in rhesus monkeys; format: in vivo
Protocol: The compound of Example 36 or Example 26 was orally given to 3-year-old male rhesus monkeys at 20 mg/kg/day or 40 mg/kg/day, respectively, once daily for 14 days.

male rhesus monkeys [4] = assay: Holter ECG test in rhesus monkeys; format: in vivo; conditions: oral, 4-year-old male rhesus monkeys
Protocol: In Holter ECG test, the compound of Example 36 or Example 26 was orally given to 4-year-old male rhesus monkeys at 40 mg/kg and 80 mg/kg, respectively.

[5] = Pharmacokinetics, time-course of plasma concentration after single oral treatment; format: in vivo, rhesus monkeys; conditions: for bioavailability: 3- or 4-year-old male rhesus monkeys; for area under the plasma concentration-time curve (AUC), dependence on dose / maximum plasma concentration (Cmax), dependence on dose / relationship between the dose and the plasma concentration: rhesus monkeys
From the text: The compound of Example 36 or Example 26 was studied about time-course of plasma concentration after single oral treatment to 3- or 4-year-old male rhesus monkeys. […] The relationship between the dose and the plasma concentration was linear. […] Therefore, it can be considered that these compounds are unlikely to be metabolized by first pass effect.

[6] = test system: human drug-metabolizing enzymes; assay: Inhibitory effect on human drug-metabolizing enzymes; format: in vitro ADME
[7] = test system: liver microsomes and hepatocytes of humans; assay: Metabolic stability in liver microsomes and hepatocytes, humans; format: in vitro ADME
[8] = test system: liver microsomes and hepatocytes of monkeys; assay: Metabolic stability in liver microsomes and hepatocytes, monkeys; format: in vitro ADME
[9] = test system: liver microsomes and hepatocytes of dogs; assay: Metabolic stability in liver microsomes and hepatocytes, dogs; format: in vitro ADME
[10] = test system: liver microsomes and hepatocytes of rats; assay: Metabolic stability in liver microsomes and hepatocytes, rats; format: in vitro ADME
[11] = test system: Citric Acid-Induced Cough Reflex in Guinea Pigs; assay: Inhibitory action on citric acid-induced cough reflex in guinea pigs (Experimental Example 1-2, nasal inhalation-exposure apparatus); format: in vivo; conditions: oral, 30 mg/kg, cough measured 1 hr after treatment
Protocol: Guinea pigs were fasted overnight. They were fixed to an nasal inhalation-exposure apparatus for small animals (M.I.P.S. Co., Ltd.), and then 20 W/V % citric acid solution was sprayed into the plethysmograph for 2 min (about 1 mL/min) using a nebulizer (M.I.P.S. Co., Ltd.). The number of cough response for 15 min after the spray was measured.
as §1, with “5 cough responses” for “5 coughs response”, “compound-treated group.” for “compound-treated group”

[12] = test system: Wistar Hannover female rats; assay: Toxicological study, oral dose in rats; format: in vivo; conditions: 40 mg/kg, 6-week-old rats
Protocol: The compound of Example 36 was orally given to 6-week-old Wistar Hannover female rats at 40 mg/kg.

[13] = 40 mg/kg/day once daily for 14 days
[14] = 20 mg/kg/day once daily for 14 days

| Structure (SMILES) | bioavailability [5] | area under the plasma concentration-time curve (AUC), dependence on dose [5] | maximum plasma concentration (Cmax), dependence on dose [5] | relationship between the dose and the plasma concentration [5] | inhibitory effect on human drug-metabolizing enzymes [6] | metabolic stability in liver microsomes and hepatocytes [7] | metabolic stability in liver microsomes and hepatocytes [8] | metabolic stability in liver microsomes and hepatocytes [9] | metabolic stability in liver microsomes and hepatocytes [10] | Percent inhibition on cough reflex [11] [%] | melting point [°C] | other results |
| --- | --- | --- | --- | --- | --- | --- | --- | --- | --- | --- | --- | --- |
| CN(CC1(O)CCN(CCc2ccc(C#N)cc2)CC1)c1ccc(C(=O)O)cc1.Cl [Example 26, 4-({1-[2-(4-cyanophenyl)ethyl]-4-hydroxypiperidin-4-ylmethyl}methylamino)benzoic acid monohydrochloride] | high | increased almost in proportion to the doses | increased almost in proportion to the doses | linear | almost no inhibitory effect | metabolically stable | metabolically stable | metabolically stable | metabolically stable | – | – | Percent inhibition on cough reflex [1]: 59%; abnormality in general behaviors, weight gains, and food consumptions [2]: no abnormality; findings in hematological and biochemical examinations, organ weights and histopathological tests [2]: No abnormal findings; survival until 24 hours after the final treatment [2]: survived; abnormality in weight gains and general behaviors (male rhesus monkeys [3]; [13]): no abnormality; findings in hematological and biochemical examinations, organ weights and histopathological tests (male rhesus monkeys [3]; [13]): No apparent toxicological findings; survival until 24 hours after the final treatment (male rhesus monkeys [3]; [13]): survived; effect on electrocardiogram (male rhesus monkeys [4]; 80 mg/kg): no effect |
| CN(CC1(O)CN(CCc2ccc(C#N)cc2)C1)c1ccc(C(=O)O)cc1.Cl [Example 34, 4-({1-[2-(4-Cyanophenyl)ethyl]-3-hydroxyazetidin-3-ylmethyl}methylamino)benzoic acid monohydrochloride] | – | – | – | – | – | – | – | – | – | 39 | 209.1 to 210.5 | – |
| CN(CC1(O)CCN(CCc2ccc(C(F)(F)F)cc2)CC1)c1ccc(C(=O)O)cc1.Cl [Example 35, 4-({4-hydroxy-1-[2-(4-trifluoromethylphenyl)ethyl]piperidin-4-ylmethyl}methylamino)benzoic acid monohydrochloride] | – | – | – | – | – | – | – | – | – | 43 | 235.1 to 246.9 | – |
| Cl.N#Cc1ccc(CCN2CCC(O)(COc3ccc(C(=O)O)cc3)CC2)cc1 [Example 36, 4-{1-[2-(4-cyanophenyl)ethyl]-4-hydroxypiperidin-4-ylmethoxy}benzoic acid monohydrochloride] | high | increased almost in proportion to the doses | increased almost in proportion to the doses | linear | almost no inhibitory effect | metabolically stable | metabolically stable | metabolically stable | metabolically stable | – | – | abnormality in general behaviors [12]: no abnormality; survival during the examination period [12]: survived; abnormality in weight gains and general behaviors (male rhesus monkeys [3]; [14]): no abnormality; findings in hematological and biochemical examinations, organ weights and histopathological tests (male rhesus monkeys [3]; [14]): No apparent toxicological findings; survival until 24 hours after the final treatment (male rhesus monkeys [3]; [14]): survived; effect on electrocardiogram (male rhesus monkeys [4]; 40 mg/kg): no effect |
